Measurements as given in patent US8829196B2, “TRPA1 antagonists” (Merck Sharp & Dohme Corp., priority 2009, dated 2014).

Biological target: T1, human TRPA1 (Homo sapiens, UniProt O75762, K186N/R3C/R58T)
T1 construct: host or cells: HEK293 FlpIn
Assay: High Throughput Calcium Imaging Assay (FLIPR, cinnamaldehyde-activated Ca2+ influx)
Type: cell-based
Conditions: HEK293 FlpIn cells stably expressing human TRPA1; EC60 cinnamaldehyde; Fluo-4AM; read-out: TRPA1 hFLIPR IC50
Excerpt: The assay was dependent on detecting the change in intracellular Ca2+ concentration following activation of the channel in cells stably expressing the TRPA1 channel. Activation of the TRPA1 channel was followed by Ca2+ influx. Ca2+ increase was quantified through the use of a fluorescent Ca2+ indicator that was loaded into the cells. Compounds which inhibited Ca2+ increase were considered “hits” warranting additional examination.
The HEK293 FlpIn cell line (Invitrogen) was stably transfected as per the manufacturers guidelines with a construct encoding a human TRPA1 protein with the amino acid sequence depicted in SEQ ID NO: 1. The resulting cell line was maintained in the growth medium recommended by the manufacturer and supplemented with 100 ug/mL Hygromycin B to promote the selection of cells stably expressing the TRPA1 channel. After growing to confluency, cells were plated at a density of 24,000 cells/well in 384 well Black/Clear Microtest plates (Falcon) in the recommended growth medium supplemented with hygromycin, and allowed to grow for 20-24 hours resulting in a ˜90% confluent monolayer of cells. Cells were then loaded with assay buffer containing the Ca2+ dye Fluo-4AM (Invitrogen) to a final concentration of 4 uM, and incubated for 60 minutes at room temperature in the dark. The assay buffer consisted of 138 mM NaCl, 5.33 mM KCl, 1.26 mM CaCl2, 0.49 mM MgCl2, 0.41 mM MgSO4 5.56 mM D-glucose, 0.44 mM KH2PO4, 0.34 mM Na2HPO4, 20 mM HEPES, 2.5 mM Probenecid, and 4% TR-40; pH 7.8. Following 1 hour dye loading, cells were assayed using the FLIPR TETRA (Molecular Devices) which permits excitation of the Fluo-4AM dye, and subsequent recording of emission spectra according to the manufacturer's guidelines. A total of 5 baseline readings were acquired prior to each reagent addition, after which, readings were acquired at a rate of 1 every 3 seconds for 195 seconds, and then 1 every 10 seconds for an additional 420 seconds. During the assay, reagents were added and mixed after each addition by the FLIPR TETRA pippetor. EC60 concentration of Cinnamaldehyde was determined before the screening assay, and used as the activating concentration henceforth. For the screening assay, the baseline reading was taken, followed by addition of 10 uL of a compound stock at six-times the final concentration, followed by 615 seconds of read time as previously described. Following baseline readings, 10 μl, of six-times final concentration Cinnamaldehyde was added to each well, achieving a final concentration of 10 uM compound, and on average, 12 uM Cinnamaldehyde (depending on the EC60 derived during that experiment). Following addition of Cinnamaldehyde, readings were taken for 615 seconds as previously described. Negative controls consisted of HEK293 FlpIn TRPA1 cells exposed to compound vehicle and then Cinnamaldehyde. […] “Hits” were identified as compounds which inhibited the fluorescence response in the presence of Cinnamaldehyde as compared to the negative and positive controls. IC50 values were determined for compounds defined as “hits” which reached fully inhibition. This cell-based fluorescence assay was used to determine Ca2+ influx through the channel in the presence of compound at the following concentrations: 10 uM, 3.33 uM, 1.11 uM, 0.37 uM, 0.12 uM, 0.041 uM, 0.014 uM, 0.0046 uM, 0.0015 uM, and 0.00051 uM.

T1 sequence (O75762 whole entry R3C/R58T/K186N): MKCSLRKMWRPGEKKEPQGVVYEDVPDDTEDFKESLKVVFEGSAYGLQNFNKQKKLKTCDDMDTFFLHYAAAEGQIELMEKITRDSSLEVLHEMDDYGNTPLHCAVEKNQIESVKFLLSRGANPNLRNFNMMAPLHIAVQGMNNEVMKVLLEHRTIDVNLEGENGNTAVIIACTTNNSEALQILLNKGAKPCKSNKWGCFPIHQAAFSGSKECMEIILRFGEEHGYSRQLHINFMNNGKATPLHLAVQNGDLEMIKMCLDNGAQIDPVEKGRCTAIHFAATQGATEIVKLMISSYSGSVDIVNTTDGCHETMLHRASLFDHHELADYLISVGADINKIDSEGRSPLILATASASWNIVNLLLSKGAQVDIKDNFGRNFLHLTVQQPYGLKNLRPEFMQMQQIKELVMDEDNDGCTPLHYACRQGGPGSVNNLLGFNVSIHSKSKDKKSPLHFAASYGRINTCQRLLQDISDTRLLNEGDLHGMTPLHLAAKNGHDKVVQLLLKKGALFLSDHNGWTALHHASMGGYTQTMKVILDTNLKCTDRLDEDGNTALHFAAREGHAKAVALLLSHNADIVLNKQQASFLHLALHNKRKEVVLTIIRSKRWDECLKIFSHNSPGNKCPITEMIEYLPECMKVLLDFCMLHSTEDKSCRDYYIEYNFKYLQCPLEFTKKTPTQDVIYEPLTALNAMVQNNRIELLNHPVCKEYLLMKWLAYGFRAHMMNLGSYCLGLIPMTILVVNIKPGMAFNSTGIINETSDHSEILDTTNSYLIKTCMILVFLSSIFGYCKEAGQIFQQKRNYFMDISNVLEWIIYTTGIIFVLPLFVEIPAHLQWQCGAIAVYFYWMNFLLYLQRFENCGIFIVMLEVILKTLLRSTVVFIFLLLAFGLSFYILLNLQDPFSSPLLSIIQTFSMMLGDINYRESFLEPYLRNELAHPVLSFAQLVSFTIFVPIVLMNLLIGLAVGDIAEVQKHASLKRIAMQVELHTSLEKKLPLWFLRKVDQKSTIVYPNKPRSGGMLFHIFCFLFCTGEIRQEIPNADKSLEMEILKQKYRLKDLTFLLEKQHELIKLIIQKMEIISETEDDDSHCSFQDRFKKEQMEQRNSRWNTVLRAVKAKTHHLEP

Compound	IC50
O[C@]12CCCC[C@@H]1CCC[C@H]2Nc1ccccc1 [(4R,4aR,8aR)-4-(phenylamino)octahydronaphthalen-4a(2H)-ol]	54 nM
COC[C@@H]1CCC(Nc2ccc(F)cc2)C2(O)CCCO[C@H]12 (stereo in doubt) [(4aR,5S)-5-[(4-fluorophenyl)amino]-8-(methoxymethyl)hexahydro-2H-chromen-4a(5H)-ol]	35 nM
O[C@]12CCCC[C@@H]1CCC[C@H]2Nc1ccc(F)cc1 [(4aR,8aR)-4-[(4-fluorophenyl)amino]octahydronaphthalen-4a(2H)-ol]	19 nM
O[C@@]12CCCO[C@H]1CCC[C@@H]2Nc1ccc(F)cc1 (stereo in doubt) [(4aR,5S,8aS)-5-[(4-fluorophenyl)amino]hexahydro-2H-chromen-4a(5H)-ol]	850 nM
O[C@]12CCCO[C@H]1CCC[C@H]2Nc1ccc(F)cc1 [(4aS,5R,8aS)-5-[(4-fluorophenyl)amino]hexahydro-2H-chromen-4a(5H)-ol]	520 nM
